Data reported in patent US20100256199A1, “Crystalline form of an Antimalarial Compound” (Glaxo Group Limited, priority 2007, published 2010).

Key:
Format in all cases: physicochemical
[1] = Stability of the polymorphic forms at ambient temperature
[2] = Competitive ripening experiments between Form 1 and Form 2 (relative thermodynamic stability)
Protocol: Forms 1 and 2 of the compound of Formula (I) are both stable at ambient temperature. Competitive ripening experiments between Form 1 and 2 of the compound of Formula (I) were conducted in i) a mixture of acetone and 1-propanol at 23° C.; ii) in acetone at 10° C. and iii) in acetone at 50° C.

[3] = Hygroscopicity of the crystalline form

Compound	Stability at ambient temperature [1]	Polymorphic form conversion in competitive ripening experiments ([2]; i) mixture of acetone and 1-propanol at 23° C.; ii) acetone at 10° C.; iii) acetone at 50° C., same outcome in each)	Hygroscopic nature [3]	Relative thermodynamic stability ([2]; at ambient temperatures, for example at 23° C.)	Relative thermodynamic stability ([2]; between 10° C. and 50° C.)
Cc1[nH]c(CO)c(-c2ccc(Oc3ccc(OC(F)(F)F)cc3)cc2)c(=O)c1Cl [Form 1, 3-chloro-6-(hydroxymethyl)-2-methyl-5-[4-({4-[(trifluoromethyl)oxy]phenyl}oxy)phenyl]-4(1H)-pyridinone]	stable	converted to Form 2	–	–	–
Cc1[nH]c(CO)c(-c2ccc(Oc3ccc(OC(F)(F)F)cc3)cc2)c(=O)c1Cl [Form 2, 3-chloro-6-(hydroxymethyl)-2-methyl-5-[4-({4-[(trifluoromethyl)oxy]phenyl}oxy)phenyl]-4(1H)-pyridinone]	–	–	non-hygroscopic	thermodynamically more stable than Form 1	thermodynamically more stable than Form 1
